Bounds are passed on as bounds.

Results on two compounds are retold here after ChEMBL document CHEMBL4513153, “CO-ADD screening of University of Northwestern St. Paul (MN, USA) compounds”.

The test system of test [1] is Cryptococcus neoformans.
Description: Antifungal activity against Cryptococcus neoformans H99 ATCC 208821 (CO-ADD:FG_002); MIC in YNB media using NBS plates, by Resazurin OD(600-570)
Test [2] deals with Candida albicans. The experiment in a line: microbe, parasite or virus in culture. As to conditions: ATCC 90028, ASSAY_TEST Inhibition of Fungal Growth, detection method Absorption (OD530), plate type 384well, NBS, CORNING #3640.
Description: Antifungal activity against Candida albicans ATCC 90028 (CO-ADD:FG_001); MIC in YNB media using NBS plates, by OD630
The subject of test [3] is Pseudomonas aeruginosa. The experiment in a line: microbe, parasite or virus in culture. To be noted: ATCC 27853, 18 h, ASSAY_TEST Inhibition of Bacterial Growth, detection method Absorption (OD600), MEDIA CAMHB, plate type 384well, NBS, CORNING #3640.
Description: Antibacterial activity against Pseudomonas aeruginosa ATCC 27853 (CO-ADD:GN_042); MIC in CAMBH media using NBS plates, by OD(600)
For test [4], the system named is Staphylococcus aureus. Briefly: microbe, parasite or virus in culture. To be noted: ATCC 43300, 18 h, ASSAY_TEST Inhibition of Bacterial Growth, detection method Absorption (OD600), MEDIA CAMHB, plate type 384well, NBS, CORNING #3640.
Description: Antibacterial activity against Staphylococcus aureus MRSA ATCC 43300 (CO-ADD:GP_020); MIC in CAMBH media, using NBS plates, by OD(600)
The subject of test [5] is Acinetobacter baumannii. The experiment in a line: microbe, parasite or virus in culture. As to conditions: ATCC 19606, 18 h, ASSAY_TEST Inhibition of Bacterial Growth, detection method Absorption (OD600), MEDIA CAMHB, plate type 384well, NBS, CORNING #3640.
Description: Antibacterial activity against Acinetobacter baumannii ATCC 19606 (CO-ADD:GN_034); MIC in CAMBH media using NBS plates, by OD600
Test [6] has as its system Escherichia coli. The experiment in a line: microbe, parasite or virus in culture. To be noted: ATCC 25922, 18 h, ASSAY_TEST Inhibition of Bacterial Growth, detection method Absorption (OD600), MEDIA CAMHB, plate type 384well, NBS, CORNING #3640.
Description: Antibacterial activity against Escherichia coli ATCC 25922 (CO-ADD:GN_001); MIC in CAMBH media using NBS plates, by OD(600)
Test [7] has as its system Klebsiella pneumoniae. Briefly: microbe, parasite or virus in culture. To be noted: ATCC 700603, 18 h, ASSAY_TEST Inhibition of Bacterial Growth, detection method Absorption (OD600), MEDIA CAMHB, plate type 384well, NBS, CORNING #3640.
Description: Antibacterial activity against Klebsiella pneumoniae MDR ATCC 70063 (CO-ADD:GN_003); MIC in CAMBH media using NBS plates, by OD(600)
Test [8] has as its system HEK293. The experiment in a line: cells. The test is classed as functional. As to conditions: Homo sapiens, ATCC CRL1573, HEK293; ASSAY_TEST Inhibition of Cell Viability; detection method Resazurin; Fluorescence (ex560/em590); MEDIA DMEM with 10% FBS; plate type 384well; TC; CORNING #3712; time 18 hr.

`Cl.N=C(N)Nc1nc(-c2c[nH]c3ccccc23)cs1`: the MIC is 16 µg/mL in test [1]; greater than 32 µg/mL in test [2]; greater than 32 µg/mL in test [3]; greater than 32 µg/mL in test [4]; greater than 32 µg/mL in test [5]; greater than 32 µg/mL in test [6]. Also, in test [7], the MIC was greater than 32 µg/mL. Further, the CC50 – broadly, the concentration that lowers cell viability or growth by half – in test [8] amounted to 9.6 µg/mL.

Consider `NC(N)=Nc1nc(-c2csc3ccccc23)cs1`, for which the MIC in test [1], in test [2], in test [3], in test [4], in test [5] and in test [6] was greater than 32 µg/mL each time. This compound displayed an MIC in test [7] greater than 32 µg/mL. For the same compound, the CC50 in test [8] was greater than 32 µg/mL.
